According to US5747538A, “Use of ginsenoside R0 or a plant extract containing same to promote collagen synthesis” (priority 1994, dated 1998):
Where two headings read alike, the source gives them in different places.

Tests used:
[1] = system: collagen I; assay: ELISA measurement of collagen I synthesis (collagen I secreted into the medium) in fibroblast culture, 48 h; type: cell-based, human; conditions: for ng collagen I/10^4 cells/48 h: mean±SD, control 2004 ± 132; for ng coll. I/10,000 HF/48 h: control (Asc. 25 μM + DMSO 0.1%) 2466 ± 289
Protocol: An ELISA method is used to measure collagen I synthesis, with and without treatment, on a culture of fibroblasts originating from a face lift performed on a person.
a.1) Fibroblast cultures:
The fibroblasts are cultivated by the explant method up to the point of confluence, at 37° C., in a medium consisting of a mixture of E199-C medium and 10% fetal calf serum, in a humidity-saturated atmosphere containing 5% of CO2.
Then, after detachment with an isotonic solution containing 0.1% of trypsin and 0.02% of EDTA, buffered to pH 7.2, the cells are inoculated into 96-well microplates (FALCON) at a rate of 10^4 cells per well in an E199-C medium containing 2% of serum.
After 24 h this medium is replaced, for 48 h of incubation, with the same medium without serum and containing 25 μM sodium ascorbate (incubation medium), with or without the test products. The products, solubilized in DMSO, are added to the culture medium at different concentrations.
a.2) Assay of collagen I:
The amount of collagen I secreted into the medium after 48 h of incubation with or without the products was determined by means of an ELISA (Enzyme-Linked Immuno Sorbent Assay) test.
The incubation medium is collected and transferred to the wells of a microtiter plate (Nunc Immunoplate) containing protease inhibitors. Incubation for 24 h at 4° C. allows the collagen to adhere to the plastic. The plates are then rinsed with PBS (Phosphate Buffered Saline).
After 24 h of incubation at 4° C. with serum albumin to prevent non-specific antibody-plastic binding, anti-human collagen I rabbit antibodies (Institut Pasteur, Lyon, France) are added over 1.5 h at 22° C. After rinsing with PBS, the bound antibodies are disclosed with anti-rabbit IgG goat antibodies (INTERCHIM, Montlugon, France) conjugated with an alkaline phosphatase, which, in the presence of paranitrophenyl phosphate, will produce a paranitrophenol absorbing at 405 nm.
The optical densities obtained are converted to nanograms of collagen using a calibration curve established under the same experimental conditions with purified human collagen I (Institut Jacques Boy, France).
a.3) Statistical interpretation:
The amounts of collagen (mean±standard deviation) secreted by the treated and untreated cells are compared by means of a Student t test. The significance level is taken as 0.05.
b.1) The protocol described above is applied in order to study the effect of the concentration of ginsenoside R0 on the stimulation of collagen I synthesis.
Table 1 gives the results obtained with compositions respectively containing 0, 1, 2.5 and 10 μg of ginsenoside R0 per ml.

[2] = system: collagen III; assay: ELISA measurement of collagen III synthesis in fibroblast culture, 72 h; type: cell-based; conditions: Homo sapiens, read-out: stimulation of synthesis of collagen III
Protocol: The protocol is the same as that described with collagen I except that the ELISA is directed against collagen III (human) and the culture treatment time is 72 h instead of the 48 h with collagen I.

Work on CC1(C)CC[C@]2(C(=O)O[C@@H]3O[C@H](CO)[C@@H](O)[C@H](O)[C@H]3O)CC[C@]3(C)C(=CC[C@@H]4[C@@]5(C)CC[C@H](O[C@@H]6O[C@H](C(=O)O)[C@@H](O)[C@H](O)[C@H]6O[C@@H]6O[C@H](CO)[C@@H](O)[C@H](O)[C@H]6O)C(C)(C)[C@@H]5CC[C@]43C)[C@@H]2C1 [ginsenoside R0] yielded an activation at 1 µg/mL ([1]; Homo sapiens, Fibroblast, 48 h, Table 1, 1 μg/ml, S: significant at the 0.05 level, read-out: Stimulation of synthesis (collagen I)) of 8%, an activation at 2.5 µg/mL ([1]; Homo sapiens, Fibroblast, 48 h, Table 1, 2.5 μg/ml, S: significant at the 0.05 level, read-out: Stimulation of synthesis (collagen I)) of 29% and an activation at 10 µg/mL ([1]; Homo sapiens, Fibroblast, 48 h, Table 1, 10 μg/ml, S: significant at the 0.05 level, read-out: Stimulation of synthesis (collagen I)) of 44%. For the same compound, the activation at 1 µg/mL ([1]; Homo sapiens, Fibroblast, 48 h, Table 2, 1 μg/ml, Example 1 S (p = 0.021), Example 2 S (p = 0.0006), ginsenoside R0 NS, read-out: % stimulation/control (collagen I)) was 1%, the activation at 1.5 µg/mL ([1]; Homo sapiens, Fibroblast, 48 h, Table 2, 1.5 μg/ml, S (p = 0.024), read-out: % stimulation/control (collagen I)) was 43% and the activation at 10 µg/mL ([1]; Homo sapiens, Fibroblast, 48 h, Table 2, 10 μg/ml, Example 1 S (p = 0.003), Example 2 S (p = 0.0006), ginsenoside R0 S (p = 0.002), read-out: % stimulation/control (collagen I)) was 66%. For the same compound, the “ng collagen I/10^4 cells/48 h” value ([1]; Table 1, 1 μg/ml) was 2172 ± 88 ng collagen I/10^4 cells/48 h, the “ng collagen I/10^4 cells/48 h” value ([1]; Table 1, 2.5 μg/ml) was 2599 ± 163 ng collagen I/10^4 cells/48 h and the “ng collagen I/10^4 cells/48 h” value ([1]; Table 1, 10 μg/ml) was 2889 ± 74 ng collagen I/10^4 cells/48 h. The “ng coll. I/10,000 HF/48 h” value ([1]; Table 2, 1 μg/ml) was 2482 ± 276 ng coll. I/10,000 HF/48 h, the “ng coll. I/10,000 HF/48 h” value ([1]; Table 2, 1.5 μg/ml) was 3529 ± 516 ng coll. I/10,000 HF/48 h and the “ng coll. I/10,000 HF/48 h” value ([1]; Table 2, 10 μg/ml) was 4099 ± 480 ng coll. I/10,000 HF/48 h. The activation at 2.5 µg/mL ([2]; 2.5 μg/ml) was 33% and the activation at 10 µg/mL ([2]; 10 μg/ml) was 81%.
